Source: the supplement of paper PMC10307832

Legend:
Test in all cases: relative viability (nuclei count vs DMSO), 5 days (fraction); higher = more cells survive
[1] = compound: Cc1ccc(C(=O)N(CCCN)[C@@H](c2nc3cc(Cl)ccc3c(=O)n2Cc2ccccc2)C(C)C)cc1 [Ispinesib] + Cc1nc(Nc2ncc(C(=O)Nc3c(C)cccc3Cl)s2)cc(N2CCN(CCO)CC2)n1 [Dasatinib] (partner 0.075 µM)
Procedure, shortened: (§1)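 Each reported value is a median over duplicate plates. It expresses relative viability: treated-well nuclei count divided by vehicle-well nuclei count. Lung cancer cell lines in 1536-well plates were dosed by pin tool a day after seeding, alone with one drug or with a fixed anchor-drug dose plus five library-drug doses (not always all listed) in √10 steps, and nuclei were counted after 5 days.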

[2] = compound: Cc1ccc(C(=O)N(CCCN)[C@@H](c2nc3cc(Cl)ccc3c(=O)n2Cc2ccccc2)C(C)C)cc1 [Ispinesib] + CC(C)C[C@H](NC(=O)[C@H](Cc1ccccc1)NC(=O)c1cnccn1)B(O)O [Bortezomib] (partner 0.002 µM)
Procedure, shortened: as §1

[3] = compound: Cc1ccc(C(=O)N(CCCN)[C@@H](c2nc3cc(Cl)ccc3c(=O)n2Cc2ccccc2)C(C)C)cc1 [Ispinesib] + Cc1nc(NC(=O)N2CCC[C@H]2C(N)=O)sc1-c1ccnc(C(C)(C)C(F)(F)F)c1 [Alpelisib] (partner 2 µM)
Procedure, shortened: as §1

[4] = compound: C[C@]1(O)C[C@@H](c2nc(-c3ccc4ccc(-c5ccccc5)nc4c3)c3c(N)nccn32)C1 [Linsitinib] + CC1(C)CCC(c2ccc(Cl)cc2)=C(CN2CCN(c3ccc(C(=O)NS(=O)(=O)c4ccc(N[C@H](CCN5CCOCC5)CSc5ccccc5)c(S(=O)(=O)C(F)(F)F)c4)cc3)CC2)C1 [Navitoclax] (partner 0.5 µM)
Procedure, shortened: as §1

Work on UMC-11 yielded a relative viability ([1]; first compound 0.001 µM) of 0.542, a relative viability ([1]; first compound 0.003162 µM) of 0.544 and a relative viability ([1]; first compound 0.01 µM) of 0.317. The relative viability ([1]; first compound 0.03162 µM) was 0.185, the relative viability ([1]; first compound 0.1 µM) was 0.233 and the relative viability ([2]; first compound 0.001 µM) was 0.505. For the same cell line, the relative viability ([2]; first compound 0.003162 µM) was 0.72, the relative viability ([2]; first compound 0.01 µM) was 0.657 and the relative viability ([2]; first compound 0.03162 µM) was 0.207. The relative viability ([2]; first compound 0.1 µM) was 0.183, the relative viability ([3]; first compound 0.001 µM) was 0.944 and the relative viability ([3]; first compound 0.003162 µM) was 1.09. It also gave a relative viability ([3]; first compound 0.01 µM) of 0.99, a relative viability ([3]; first compound 0.03162 µM) of 0.351 and a relative viability ([3]; first compound 0.1 µM) of 0.282. For the same cell line, the relative viability ([4]; first compound 0.01 µM) was 0.317, the relative viability ([4]; first compound 0.03162 µM) was 0.301 and the relative viability ([4]; first compound 0.1 µM) was 0.315. The relative viability ([4]; first compound 1 µM) was 0.302.
